Earlier results in paper PMC5641599 (Molecular Metabolism, 2017).
Where two headings read alike, the source gives them in different places.

Test system: MC4R variants
Details: cited from earlier work

NDP-MSH
Binding Bmax (% of WT) (MC4R I301T, ref Vaisse C, J Clin Invest, 2000): 20.0 % of WT | Binding Bmax (% of WT) (MC4R I301T, ref Xiang Z, Biochemistry, 2006): 35.6 % of WT | Binding Bmax (% of WT) (MC4R I316S, ref Xiang Z, Biochemistry, 2006): 55.6 % of WT | Binding Bmax (% of WT) (MC4R I316S, ref Yeo GS, Hum Mol Genet, 2003): 28.0 % of WT | Binding Bmax (% of WT) (MC4R I317T, ref Nijenhuis WA, J Biol Chem, 2003): 42.0 % of WT | Binding Bmax (% of WT) (MC4R I317T, ref VanLeeuwen, J Biol Chem, 2003): 66.7 % of WT | Binding Bmax (% of WT) (MC4R I317T, ref Xiang Z, Biochemistry, 2006): 20.0 % of WT | Binding Bmax (% of WT) (MC4R I317V, ref Fan ZC, J Cell Mol Med, 2009): 94.0 % of WT | Binding Bmax (% of WT) (MC4R I317V, ref Xiang Z, Biochemistry, 2010): 91.9 % of WT | Binding Bmax (% of WT) (MC4R L54P, ref Tan K, Endocrinology, 2009): 32.5 % of WT | Binding Bmax (% of WT) (MC4R L106P, ref Xiang Z, Biochemistry, 2006): 2.2 % of WT | Binding Bmax (% of WT) (MC4R L106P, ref Yeo GS, Hum Mol Genet, 2003): 18.7 % of WT | Binding Bmax (% of WT) (MC4R L304F, ref van der Berg L, Obesity, 2011): 40.0 % of WT | Binding Bmax (% of WT) (MC4R L325F, ref Fan ZC, J Cell Mol Med, 2009): 92.0 % of WT | Binding Bmax (% of WT) (MC4R L325F, ref Larsen LH, J Clin Endocrinol Metab, 2005): 0.0 % of WT | Binding Bmax (% of WT) (MC4R L325F, ref Xiang Z, Biochemistry, 2010): 70.3 % of WT | Binding Bmax (% of WT) (MC4R N62S, HEK293 cell line, ref Huang H, Int J Biol Sci, 2014): 25.0 % of WT | Binding Bmax (% of WT) (MC4R N62S, ref Tao YX, Endocrinology, 2003): 5.0 % of WT | Binding Bmax (% of WT) (MC4R N62S, ref Xiang Z, Biochemistry, 2006): 1.4 % of WT | Binding Bmax (% of WT) (MC4R N62S, ref Yeo GS, Hum Mol Genet, 2003): 20.0 % of WT | Binding Bmax (% of WT) (MC4R N97D, ref Xiang Z, Biochemistry, 2006): 8.9 % of WT | Binding Bmax (% of WT) (MC4R N97D, ref Yeo GS, Hum Mol Genet, 2003): 10.5 % of WT | Binding Bmax (% of WT) (MC4R N274S, ref Tao YX, Endocrinology, 2003): 144.0 % of WT | Binding Bmax (% of WT) (MC4R N274S, ref Xiang Z, Biochemistry, 2006): 66.7 % of WT | Binding Bmax (% of WT) (MC4R P48S, ref Tao YX, Endocrinology, 2003): 79.0 % of WT | Binding Bmax (% of WT) (MC4R P48S, ref Xiang Z, Biochemistry, 2010): 48.6 % of WT | Binding Bmax (% of WT) (MC4R P78L, HEK293 cell line, ref Huang H, Int J Biol Sci, 2014): 0.0 % of WT | Binding Bmax (% of WT) (MC4R P78L, ref Nijenhuis WA, J Biol Chem, 2003): 0.9 % of WT | Binding Bmax (% of WT) (MC4R P78L, ref Tao YX, Endocrinology, 2003): 0.0 % of WT | Binding Bmax (% of WT) (MC4R P78L, ref Xiang Z, Biochemistry, 2006): 0.556 % of WT | Binding Bmax (% of WT) (MC4R P299H, ref Roubert P, J Endocrinol, 2010): 0.0 % of WT | Binding Bmax (% of WT) (MC4R P299H, ref Xiang Z, Biochemistry, 2006): 1.2 % of WT | Binding Bmax (% of WT) (MC4R P299L, ref Xiang Z, Biochemistry, 2010): 2.4 % of WT | Binding Bmax (% of WT) (MC4R R305W, ref Roubert P, J Endocrinol, 2010): 193.9 % of WT | Binding Bmax (% of WT) (MC4R S58C, ref Roubert P, J Endocrinol, 2010): 27.6 % of WT | Binding Bmax (% of WT) (MC4R S58C, ref Tao YX, Endocrinology, 2003): 14.0 % of WT | Binding Bmax (% of WT) (MC4R S58C, ref Xiang Z, Biochemistry, 2006): 22.2 % of WT | Binding Bmax (% of WT) (MC4R S94R, ref Xiang Z, Biochemistry, 2010): 0.135 % of WT | Binding Bmax (% of WT) (MC4R S295P, ref Tao YX, J Clin Endocrinol Metab, 2005): 129.0 % of WT | Binding Bmax (% of WT) (MC4R S295P, ref Xiang Z, Biochemistry, 2010): 162.2 % of WT | Binding Bmax (% of WT) (MC4R T112M, ref Nijenhuis WA, J Biol Chem, 2003): 100.0 % of WT | Binding Bmax (% of WT) (MC4R T112M, ref Tao YX, J Clin Endocrinol Metab, 2005): 130.0 % of WT | Binding Bmax (% of WT) (MC4R V50M, ref Roubert P, J Endocrinol, 2010): 69.4 % of WT | Binding Bmax (% of WT) (MC4R V50M, ref Tao YX, Endocrinology, 2003): 74.0 % of WT | Binding Bmax (% of WT) (MC4R V50M, ref Xiang Z, Biochemistry, 2010): 59.5 % of WT | Binding Bmax (% of WT) (MC4R V95I, ref Xiang Z, Biochemistry, 2006): 0.7 % of WT | Binding Bmax (% of WT) (MC4R V103I, ref Ho G, J Biol Chem, 1999): 123.3 % of WT | Binding Bmax (% of WT) (MC4R V103I, ref Xiang Z, Biochemistry, 2006): 100.0 % of WT | Binding Bmax (% of WT) (MC4R Y302F, ref Roth CL, Endocrine, 2009): 80.0 % of WT | Binding Bmax (% of WT) (MC4R Y332H, ref Santoro N, BMC Med Genet, 2009): 100.0 % of WT
